Measurements from patent publication US9822099B2, “Triazole derivatives” (priority 2013, dated 2017).
Marks after values point to notes of the source that are not given here.

Key:
Botrytis cinerea = experiment: Example A: in vivo preventive test on Botrytis cinerea (grey mould); settings: 500 ppm of active ingredient; gherkin plants, preventive spray; evaluated 4 to 5 days after inoculation
Protocol: (§1) The young plants of gherkin are treated by spraying the active ingredient prepared as described above. Control plants are treated only with an aqueous solution of acetone/Dimethyl sulfoxide/Tween®. After 24 hours, the plants are contaminated by spraying the leaves with an aqueous suspension of Botrytis cinerea spores.

Puccinia recondita = experiment: Example B: in vivo preventive test on Puccinia recondita (brown rust on wheat); settings: wheat plants, preventive spray, evaluated 11 days after inoculation
Protocol: as §1, with “wheat” for “gherkin”, “Puccinia recondita” for “Botrytis cinerea”

Pyrenophora teres = experiment: Example C: in vivo preventive test on Pyrenophora teres (net blotch on barley); settings: 500 ppm of active ingredient; barley plants, preventive spray; evaluated 14 days after inoculation
Protocol: as §1, with “barley” for “gherkin”, “Pyrenophora teres” for “Botrytis cinerea”

Septoria tritici = experiment: Example D: in vivo preventive test on Septoria tritici (leaf spot on wheat); settings: wheat plants, preventive spray, evaluated 24 days after inoculation
Protocol: as §1, with “wheat” for “gherkin”, “Septoria tritici” for “Botrytis cinerea”

Sphaerotheca fuliginea = experiment: Example E: in vivo preventive test on Sphaerotheca fuliginea (powdery mildew on cucurbits); settings: gherkin plants, preventive spray, evaluated 15 days after inoculation
Protocol: as §1, with “Sphaerotheca fuliginea” for “Botrytis cinerea”

Uromyces appendiculatus = experiment: Example F: in vivo preventive test on Uromyces appendiculatus (bean rust); settings: bean plants, preventive spray, evaluated 11 days after inoculation
Protocol: as §1, with “bean” for “gherkin”, “Uromyces appendiculatus” for “Botrytis cinerea”

[1] = test system: Blumeria graminis f. sp. hordei; experiment: Example G: Blumeria test (barley)/preventive; format: in vivo; settings: 500 ppm of active ingredient, preventive, evaluated 7 days after inoculation
Protocol: (§2) Solvent: 49 parts by weight of N,N-dimethylacetamide Emulsifier: 1 part by weight of alkylaryl polyglycol ether To produce a suitable preparation of active compound, 1 part by weight of active compound or active compound combination is mixed with the stated amounts of solvent and emulsifier, and the concentrate is diluted with water to the desired concentration. To test for preventive activity, young plants are sprayed with the preparation of active compound or active compound combination at the stated rate of application. After the spray coating has been dried, the plants are dusted with spores of Blumeria graminis f. sp. hordei.

Fusarium culmorum = experiment: Example H: Fusarium culmorum-test (wheat)/curative; format: in vivo; settings: 500 ppm of active ingredient, curative, evaluated 5 days after inoculation
Protocol: (§3) Solvent: 49 parts by weight of N,N-dimethylacetamide
(§4) Emulsifier: 1 part by weight of alkylaryl polyglycol ether
(§5) To produce a suitable preparation of active compound, 1 part by weight of active compound or active compound combination is mixed with the stated amounts of solvent and emulsifier, and the concentrate is diluted with water to the desired concentration.
To test for curative activity, young plants are slightly injured by using a sandblast and afterwards they are sprayed with a conidia suspension of Fusarium culmorum and placed for 24 hours in a greenhouse under a translucent incubation cabinet at a temperature of approximately 22° C. and a relative atmospheric humidity of approximately 100% and are subsequently sprayed with the preparation of active compound at the stated rate of application.
After the spray coating has been dried, the plants remain in the greenhouse under translucent incubation cloches at a temperature of approximately 22° C. and a relative atmospheric humidity of approximately 100%.
(§6) The test is evaluated 5 days after the inoculation. 0% means an efficacy which corresponds to that of the untreated control, while an efficacy of 100% means that no disease is observed.

Fusarium graminearum = format: in vivo; settings: 500 ppm of active ingredient; barley, preventive; evaluated 5 days after inoculation
[2] = test system: Fusarium nivale (var. majus); experiment: Example J: Fusarium nivale (var. majus)-test (wheat)/preventive; format: in vivo; settings: 500 ppm of active ingredient, preventive, evaluated 5 days after inoculation
Protocol: as §3, §4, §5
To test for preventive activity, young plants are sprayed with the preparation of active compound or active compound combination at the stated rate of application.
After the spray coating has been dried, the plants are slightly injured by using a sandblast and afterwards they are sprayed with a conidia suspension of Fusarium nivale (var. majus).
The plants are placed in the greenhouse under a translucent incubation cabinet at a temperature of approximately 10° C. and a relative atmospheric humidity of approximately 100%.
as §6

Leptosphaeria nodorum = experiment: Example K: Leptosphaeria nodorum test (wheat)/preventive; format: in vivo; settings: 500 ppm of active ingredient, preventive, evaluated 8 days after inoculation
Protocol: as §2, with “sprayed” for “dusted”, “a spore suspension” for “spores”, “Leptosphaeria nodorum.” for “Blumeria graminis f. sp. hordei.”

Pyricularia oryzae = format: in vivo; settings: 500 ppm of active ingredient; rice, preventive; evaluated 8 days after inoculation
[3] = pH 2.7
Phakopsora pachyrhizi = experiment: Example L: Phakopsora test (soybeans)/preventive; format: in vivo; settings: preventive, evaluated 7 days after inoculation
Venturia inaequalis = experiment: Example O: Venturia test (apples)/preventive; format: in vivo; settings: 100 ppm of active ingredient, preventive, evaluated 10 days after inoculation
Protocol: Solvent: 24.5 parts by weight of acetone • 24.5 parts by weight of dimethylacetamide Emulsifier: 1 part by weight of alkylaryl polyglycol ether To produce a suitable preparation of active compound, 1 part by weight of active compound is mixed with the stated amounts of solvent and emulsifier, and the concentrate is diluted with water to the desired concentration. To test for preventive activity, young plants are sprayed with the preparation of active compound at the stated rate of application.

SMILES | Eff. % (Botrytis cinerea) [%] | Eff. % (Puccinia recondita; 500 ppm of active ingredient) [%] | Eff. % (Pyrenophora teres) [%] | Eff. % (Septoria tritici; 500 ppm of active ingredient) [%] | Eff. % (Sphaerotheca fuliginea; 500 ppm of active ingredient) [%] | Eff. % (Uromyces appendiculatus; 500 ppm of active ingredient) [%] | Eff. % [1] [%] | Eff. % (Fusarium culmorum) [%] | Eff. % (Fusarium graminearum) [%] | Eff. % [2] [%] | Eff. % (Leptosphaeria nodorum) [%] | Eff. % (Pyricularia oryzae) [%] | LogP [3] | Eff. % (Phakopsora pachyrhizi; 10 ppm of active ingredient) [%] | Eff. % (Puccinia recondita; 100 ppm of active ingredient) [%] | Eff. % (Septoria tritici; 100 ppm of active ingredient) [%] | Eff. % (Sphaerotheca fuliginea; 100 ppm of active ingredient) [%] | Eff. % (Uromyces appendiculatus; 100 ppm of active ingredient) [%] | Eff. % (Phakopsora pachyrhizi; 100 ppm of active ingredient) [%] | Eff. % (Venturia inaequalis) [%]
OC(Cc1cccc(Cl)n1)(Cn1cncn1)C1(Cl)CC1 (centres unmarked) [Example I-29] | 94 | 97 | 95 | 100 | 100 | 100 | 100 | 100 | 100 | 100 | 100 | 70 | 2.18^[a] | – | – | – | – | – | – | –
OC(Cc1ccnc(Cl)c1)(Cn1cncn1)C1(Cl)CC1 (centres unmarked) [Example I-39] | 99 | 97 | 100 | 100 | 100 | 100 | 100 | 100 | 100 | 100 | 100 | 80 | 1.76^[a] | 88 | – | – | – | – | – | –
OC(Cc1ccnnc1Cl)(Cn1cncn1)C1(Cl)CC1 (centres unmarked) [Example I-45] | – | – | – | – | – | – | 100 | 100 | 100 | 100 | 88 | – | 1.31^[a] | 93 | 97 | 100 | 100 | 100 | – | –
CC1(C(O)(Cc2ccncc2Cl)Cn2cncn2)CC1 (centres unmarked) [Example I-49] | 99 | 100 | 93 | 100 | 100 | 81 | 100 | 100 | 100 | 100 | 100 | – | 1.57^[a] | – | – | – | – | – | 96 | 100
OC(Cc1nccnc1I)(Cn1cncn1)C1(Cl)CC1 (centres unmarked) [Example I-54] | 100 | 97 | – | 100 | 100 | 100 | 100 | – | 100 | 100 | – | 78 | 2.07^[a] | – | – | – | – | – | 99 | 89
CC(CF)(CF)C(O)(Cc1ccnc(Cl)c1F)Cn1cncn1 (centres unmarked) [Example I-61] | 99 | 98 | 93 | 100 | 100 | 100 | 100 | 100 | 100 | 100 | 75 | – | 1.87^[a] | 80 | – | – | – | – | – | –
